test: Human HepG2 cell viability assay in 384 well format; type: toxicity, cell-based; parameters: dose 125 nL, time 70.5 hour; cytotoxicity at 70.5 h: concentration not given beside the values; details: HepG2 cells, read-out: Inhibition

First: COc1ccc(CN2CCn3cc(CNC(=O)C4CCC4)nc3C2)cc1
Second: CC(C)c1sc(Cl)nc1C(=O)N1CCN(Cc2ccccc2)CC1
The cytotoxicity at 70.5 h of the first is lower: 7.38% for the first, 27.3% for the second.

Going from `NC(=O)CN(CC(N)=O)Cc1cccc(Oc2ccccc2)c1` to `Cc1ccc(C(=O)O)cc1S(=O)(=O)Nc1nn(-c2ccccc2)cc1C`, the cytotoxicity at 70.5 h falls from 7.82% to -0.199%.

Compared with `O=C(NCCCn1ccnc1)N1CCN(c2cccs2)CC1`, `CCn1ccnc1CN1CCCN(C(=O)Cn2nc(C)cc2C)CC1` is lower in cytotoxicity at 70.5 h: -8.6% for the first, -19.3% for the second.

Going from `CCn1nc2c(cc1=O)CN(Cc1nc(N)c3ccccc3n1)CC2` to `CCOC(=O)CN1CCC2(CC1)CC(=O)c1ccc3ccccc3c1O2`, the cytotoxicity at 70.5 h falls from -2.07% to -5.23%.

Compared with `CN(Cc1cnn(C)c1)C(=O)CN1CCCC1Cn1cncn1` (stereo unspecified), `Cc1cnn(CC2CCCCN2C(=O)Cn2nc(C)c(Cl)c2C)c1` (stereo unspecified) is lower in cytotoxicity at 70.5 h: 21.4% for the first, -4.01% for the second.

First: Cc1nn(C)c(N2CCOCC2)c1CNCC1CCCN1C (stereo unspecified)
Second: CN1CCN(CC2CC2)C(=O)c2cnc(N3CCOCC3)nc21
The cytotoxicity at 70.5 h of the first is lower: -5.73% for the first, -3.35% for the second.

First: CC(=O)N1CCCC2(C1)CN(C(=O)Cc1ccccc1)CCO2 (stereo unspecified)
Second: CCC(=O)N1CCC2(C=C(C(=O)N(C)C)c3ccccc32)CC1
The cytotoxicity at 70.5 h of the first is lower: -15.1% for the first, 14% for the second.

Compared with `CCCC(NC(=O)c1ccc(C)cc1C)c1nnn[nH]1` (stereo unspecified), `CCOc1ccc(C(=O)CCC(=O)N(C)Cc2cnccn2)cc1C` is higher in cytotoxicity at 70.5 h: 0.32% for the first, 10.8% for the second.

Going from `Cc1cc(C)nc(N2CCN(Cc3nccn3C)CC2)n1` to `Cc1cc2nc(C(C)C)cc(N3CCN(S(N)(=O)=O)CC3)n2n1`, the cytotoxicity at 70.5 h falls from -2.76% to -3.4%.

Going from `Cc1ccccc1SC1CCN(C(=O)C2CNC(=O)N2)CC1` (stereo unspecified) to `COCC1CCN(C(=O)c2cn(Cc3ccccc3F)nn2)CC1`, the cytotoxicity at 70.5 h rises from 2.9% to 5.43%.

Compared with `CSCC[C@H](N)C(=O)NCc1cc2n(n1)CCCN(C(=O)N(C)C)C2`, `CC(C)OCCC(=O)NCCc1csc(N2CCCC2)n1` is higher in cytotoxicity at 70.5 h: -8.91% for the first, 5.53% for the second.

Going from `CCCc1cc(CNC2CCN(c3nc4ccccc4s3)CC2)on1` to `CNC(=O)CC1CCN(Cc2nc(-c3cccc(Cl)c3)oc2C)CC1`, the cytotoxicity at 70.5 h falls from -6.6% to -7.93%.

Going from `CN(CCC1CCOCC1)[C@@H]1c2ccccc2C2(CCNCC2)[C@H]1O` to `COCCN1C2(CCN(C(=O)c3cccs3)C2)c2ccccc2S1(=O)=O` (stereo unspecified), the cytotoxicity at 70.5 h rises from -4.06% to 2.42%.

Going from `Cc1cc(CN2CCN(CC(O)c3ccc(Cl)cc3)CC2)no1` (stereo unspecified) to `Cc1ccc(CN2CC[C@H]3OCC[C@@H](c4nc(C)no4)[C@H]3C2)cc1`, the cytotoxicity at 70.5 h rises from -11.9% to -11.4%.

Going from `CC(C)CC(=O)NCC(O)c1c(F)cccc1F` (stereo unspecified) to `Cc1noc(C(C)C)c1C(=O)NCC1CCCN1Cc1ccccc1` (stereo unspecified), the cytotoxicity at 70.5 h rises from -7.25% to 9.45%.

First: CC1CN(Cc2ccccc2Cn2cccn2)CCN1C (stereo unspecified)
Second: O=C(NCc1ccccn1)[C@]12COC[C@H]1CN(Cc1ccsc1)C2
The cytotoxicity at 70.5 h of the first is higher: -0.364% for the first, -0.962% for the second.

First: CCN(CCO)C[C@@H]1CN(c2cccc(C(F)(F)F)n2)C[C@@H]1CO
Second: CNC(=O)[C@@H]1C[C@@H](N)CN1Cc1ccc2cccc(OC)c2n1
The cytotoxicity at 70.5 h of the first is lower: -11.5% for the first, -2.31% for the second.

Compared with `Cc1cc(C(=O)NCC2(N(C)C)CCCC2)c(C)n1-c1cccnc1`, `Cc1nn(C)c(C)c1NC(=O)c1cccc(CN2C[C@H]3CC[C@@H](C2)N3)c1` is lower in cytotoxicity at 70.5 h: -0.689% for the first, -13.8% for the second.

Going from `CCOc1ccc(NC(=O)c2scnc2CC)cc1CO` to `CCOc1cc(C(=O)N2CCCC2)cc2occc12`, the cytotoxicity at 70.5 h falls from 1.88% to -8.39%.

First: Cc1cc(CN2CCN(C(=O)C(C)C)[C@@H]3CS(=O)(=O)C[C@@H]32)ccc1F
Second: CC(C)NC(=O)C1CCC2(CCN(Cc3cnn(C)c3)CC2)C1 (stereo unspecified)
The cytotoxicity at 70.5 h of the first is higher: -2.32% for the first, -8.81% for the second.

Going from `Cc1c(OCC(=O)NCc2ccccc2Cl)c(=O)ccn1C` to `CC(=O)c1ccc(-c2cnn(CC(=O)Nc3ccnn3C)c2)nc1`, the cytotoxicity at 70.5 h rises from -23.2% to -9.08%.

First: Fc1cnc(N2CC[C@@H](N3CCOCC3)[C@@H]2Cc2cccnc2)nc1
Second: CN(Cc1ccncc1)C(=O)NC1CCCN(c2ncccn2)C1 (stereo unspecified)
The cytotoxicity at 70.5 h of the first is higher: 9.63% for the first, -1.22% for the second.

Compared with `COC(=O)[C@H](C)NC(=O)c1cc(-c2cccc(Cl)c2)no1`, `CC(NC(=O)c1cc(-c2cccc(Cl)c2)no1)C(=O)N(C)C` (stereo unspecified) is lower in cytotoxicity at 70.5 h: 2% for the first, -17.3% for the second.

Compared with `Cc1c[nH]c(CN2CC[C@@]3(O)CCN(C(=O)C4CCCC4)C[C@H]3C2)n1`, `Cc1nc(C2CCCN(C(=O)c3sc(C)nc3C)C2)no1` (stereo unspecified) is higher in cytotoxicity at 70.5 h: 19.2% for the first, 37.2% for the second.

First: CCc1nccn1C1CCCN(C(=O)c2ccc3[nH]cnc3c2)C1 (stereo unspecified)
Second: CS(=O)(=O)N1Cc2nccn2CC(CN2CCCC2=O)C1 (stereo unspecified)
The cytotoxicity at 70.5 h of the first is lower: -5.72% for the first, 1.5% for the second.

Going from `CCn1cc(NC(=O)NCCN2CCCCCC2=O)cn1` to `O=C1[C@H]2CN(c3ncccn3)C[C@H]2CN1CC1CC1`, the cytotoxicity at 70.5 h falls from -6.34% to -124%.

Compared with `Cc1c(-c2cnn(C)c2)nc(N)c(C#N)c1-c1ccc(CO)o1`, `Cc1ncsc1CCN(C)Cc1ccc(Br)o1` is higher in cytotoxicity at 70.5 h: 2.44% for the first, 9.94% for the second.

Going from `CC(C)C(NC(=O)c1ccco1)C(=O)N1CCC2(CC1)OCCO2` (stereo unspecified) to `CC(=O)Nc1ccc2nc(CN(C)Cc3noc(C)n3)ccc2c1`, the cytotoxicity at 70.5 h falls from 17.8% to -4.56%.
